Experimental data from ChEMBL document CHEMBL5244216, “Pyrrole: An insight into recent pharmacological advances with structure activity relationship” (Eur J Med Chem, 2018).
Converted amounts (≈) assume the structure as drawn.

Legend:
[1] = test system: Human immunodeficiency virus; experiment: Antiviral activity against HIV-CBL 20 infected in MT-4 cells assessed as viral replication measured after 4 days by ELISA; format: functional, organism-based; settings: Human immunodeficiency virus 1, CBL 20, MT4, 96 h
[2] = Cytotoxicity activity against human MCF7 cells assessed as reduction in cell viability measured after 72 hrs by MTT assay; format: toxicity, cell-based
[3] = Cytotoxicity activity against human MOLT-4 cells assessed as reduction in cell viability measured after 72 hrs by MTT assay; format: toxicity, cell-based
[4] = Cytotoxicity activity against human HL-60 cells assessed as reduction in cell viability measured after 72 hrs by MTT assay; format: toxicity, cell-based
[5] = Inhibition of maize HD2; parameters: species or system Zea mays
[6] = Inhibition of maize HD1-B; parameters: species or system Zea mays
[7] = Inhibition of maize HD1-A; parameters: species or system Zea mays
Pseudomonas aeruginosa = experiment: Antibacterial activity against Pseudomonas aeruginosa assessed as reduction in bacterial growth by broth microdilution method; format: functional, organism-based
Escherichia coli [8] = experiment: Antibacterial activity against Escherichia coli assessed as reduction in bacterial growth by broth microdilution method; format: functional, organism-based
Klebsiella pneumoniae [9] = experiment: Antibacterial activity against Klebsiella pneumoniae assessed as reduction in bacterial growth by broth microdilution method; format: functional, organism-based
[10] = test system: Staphylococcus auricularis; experiment: Antibacterial activity against Staphylococcus auricularis assessed as reduction in bacterial growth by broth microdilution method; format: functional, organism-based
Bacillus subtilis [11] = experiment: Antibacterial activity against Bacillus subtilis assessed as reduction in bacterial growth by broth microdilution method; format: functional, organism-based
Rattus norvegicus [12] = experiment: Anti-inflammatory activity against carrageenan-induced acute paw edema in Wistar albino rat at 100 mg/kg assessed as inhibition of paw edema volume incubated for 3 hrs by Plethysmometric analysis relative to control; format: functional; parameters: scale not given: the % may be the effect or the level left
Rattus norvegicus [13] = experiment: Anti-inflammatory activity against carrageenan-induced acute paw edema in Wistar albino rat at 10 mg/kg assessed as inhibition of paw edema incubated for 3 hrs by Plethysmometric analysis relative to control; format: functional; parameters: scale not given: the % may be the effect or the level left
Rattus norvegicus [14] = experiment: Anti-inflammatory activity against carrageenan-induced acute paw edema in Wistar albino rat at 10 mg/kg assessed as inhibition of paw edema incubated for 5 hrs by Plethysmometric analysis relative to control; format: functional; parameters: scale not given: the % may be the effect or the level left
[15] = Cytotoxicity activity against human Eca-109 cells assessed as reduction in cell viability measured after 48 hrs by MTT assay; format: toxicity, cell-based
[16] = Cytotoxicity activity against human PC-3 cells assessed as reduction in cell viability measured after 48 hrs by MTT assay; format: toxicity, cell-based
[17] = Cytotoxicity activity against human SMMC-7721 cells assessed as reduction in cell viability measured after 48 hrs by MTT assay; format: toxicity, cell-based
[18] = test system: Mycobacterium tuberculosis; experiment: Antitubercular activity against Mycobacterium tuberculosis H37Rv assessed as reduction in microbial growth by broth dilution method; format: functional
[19] = test system: Mycobacterium tuberculosis; experiment: Antitubercular activity against Mycobacterium tuberculosis H37Rv assessed as reduction in bacterial growth by microplate alamar blue assay; format: functional
Bacillus subtilis [20] = experiment: Antibacterial activity against Bacillus subtilis MTCC 121 assessed as zone of inhibition at 800 ug/mL by disk diffusion method; format: functional; settings: read-out: IZ
Staphylococcus aureus = experiment: Antibacterial activity against Staphylococcus aureus 22 assessed as zone of inhibition at 800 ug/mL by disk diffusion method; format: functional; settings: read-out: IZ
Escherichia coli [21] = experiment: Antibacterial activity against Escherichia coli K12 assessed as zone of inhibition at 800 ug/mL by disk diffusion method; format: functional; settings: read-out: IZ
Klebsiella pneumoniae [22] = experiment: Antibacterial activity against Klebsiella pneumoniae assessed as zone of inhibition at 800 ug/mL by disk diffusion method; format: functional; settings: read-out: IZ
[23] = test system: Human immunodeficiency virus 1; experiment: Antiviral activity against HIV-1; format: functional, organism-based
Cannabinoid receptor 1 = Cannabinoid receptor 1 (Rattus norvegicus, UniProt P20272); experiment: Binding affinity to rat CB1 receptor
Cannabinoid receptor 2 = Cannabinoid receptor 2 (Homo sapiens, UniProt P34972); experiment: Binding affinity to human recombinant CB2 receptor
Rattus norvegicus [24] = experiment: Antihypertensive activity in Wistar rat assessed as decrease in systolic blood pressure at 20 mg/kg, po measured after 0.5 to 2 hrs by tail cuff method; format: functional; settings: time 0.5-2 hrs
[25] = Toxicity in Nilaparvata lugens assessed as mortality at 0.8 mg/L relative to control; settings: at 0.8 µg/mL
[26] = test system: Mycobacterium tuberculosis; experiment: Antitubercular activity against Mycobacterium tuberculosis 103471 assessed as reduction in bacterial growth; format: functional
[27] = biological target: Tyrosine-protein kinase Lck (Homo sapiens, UniProt P06239); experiment: Inhibition of human recombinant Lck
MDA-MB-231 = experiment: Antiproliferative activity against human MDA-MB-231 cells by SRB assay
Rattus norvegicus [28] = experiment: Anti-inflammatory activity against carrageenan-induced acute paw edema in Wistar albino rat at 10 mg/kg assessed as inhibition of paw edema volume incubated for 3 hrs by Plethysmometric analysis relative to control; format: functional; parameters: scale not given: the % may be the effect or the level left
[29] = Cytotoxicity activity against human A549 cells assessed as reduction in cell viability measured after 48 hrs by MTT assay; format: toxicity, cell-based

Chain of Cannabinoid receptor 1 (P20272 whole entry): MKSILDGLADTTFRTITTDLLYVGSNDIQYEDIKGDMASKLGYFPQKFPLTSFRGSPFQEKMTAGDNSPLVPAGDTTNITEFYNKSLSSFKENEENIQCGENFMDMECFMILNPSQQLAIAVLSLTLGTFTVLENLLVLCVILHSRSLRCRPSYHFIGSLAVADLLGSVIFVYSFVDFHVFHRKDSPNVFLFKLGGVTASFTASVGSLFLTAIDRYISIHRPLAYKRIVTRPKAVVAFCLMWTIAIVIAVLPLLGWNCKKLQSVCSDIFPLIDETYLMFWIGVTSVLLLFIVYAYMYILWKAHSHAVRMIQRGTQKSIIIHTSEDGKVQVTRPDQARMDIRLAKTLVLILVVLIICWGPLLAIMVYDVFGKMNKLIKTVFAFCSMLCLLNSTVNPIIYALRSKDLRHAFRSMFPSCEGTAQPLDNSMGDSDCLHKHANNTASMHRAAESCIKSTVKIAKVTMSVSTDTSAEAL
Chain of Cannabinoid receptor 2 (P34972 whole entry): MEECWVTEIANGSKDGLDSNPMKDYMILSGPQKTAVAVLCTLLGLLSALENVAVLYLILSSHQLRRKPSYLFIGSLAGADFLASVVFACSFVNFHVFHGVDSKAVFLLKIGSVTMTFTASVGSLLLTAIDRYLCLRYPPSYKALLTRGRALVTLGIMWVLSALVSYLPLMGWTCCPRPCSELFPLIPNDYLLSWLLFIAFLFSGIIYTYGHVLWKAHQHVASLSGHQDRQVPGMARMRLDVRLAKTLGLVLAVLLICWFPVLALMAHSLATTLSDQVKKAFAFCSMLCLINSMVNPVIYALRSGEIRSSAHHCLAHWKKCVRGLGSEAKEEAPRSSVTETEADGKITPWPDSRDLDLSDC
Chain of Tyrosine-protein kinase Lck (P06239 whole entry): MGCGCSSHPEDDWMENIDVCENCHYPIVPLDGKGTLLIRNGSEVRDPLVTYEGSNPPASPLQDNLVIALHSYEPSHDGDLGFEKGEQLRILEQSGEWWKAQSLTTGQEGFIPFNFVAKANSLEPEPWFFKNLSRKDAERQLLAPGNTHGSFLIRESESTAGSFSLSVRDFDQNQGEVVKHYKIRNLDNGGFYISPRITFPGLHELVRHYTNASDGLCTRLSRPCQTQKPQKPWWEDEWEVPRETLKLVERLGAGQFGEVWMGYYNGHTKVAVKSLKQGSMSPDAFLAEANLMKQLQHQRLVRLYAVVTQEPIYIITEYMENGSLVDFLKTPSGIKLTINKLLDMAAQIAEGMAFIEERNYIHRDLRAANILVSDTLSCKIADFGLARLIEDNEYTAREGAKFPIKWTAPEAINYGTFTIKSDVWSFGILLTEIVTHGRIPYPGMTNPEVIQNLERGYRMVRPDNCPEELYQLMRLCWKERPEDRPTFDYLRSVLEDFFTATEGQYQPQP

Compound `O=[N+]([O-])c1ccccc1S(=O)(=O)c1ccccc1` has an EC50 [1] of 3.4 µM.

For `CCOC(=O)c1cccn1S(=O)(=O)c1ccccc1[N+](=O)[O-]`, the EC50 [1] was 15.1 µM.

`COC(=O)c1c(C2C(=O)N(C)C(=O)N(C)C2=O)c(-c2ccccc2)n(-c2ccc(OC)c(S(=O)(=O)N3CCOCC3)c2)c1C(=O)OC` showed an IC50 at 72 h [2] of 39 µM, an IC50 at 72 h [3] of 25.5 µM and an IC50 at 72 h [4] of 30.6 µM.

With `CC(C(=O)c1cc(/C=C/C(=O)NO)n(C)c1)c1ccccc1` (configuration not stated) the IC50 [5] was 0.112 µM, the IC50 [6] was 0.015 µM and the IC50 [7] was 0.028 µM.

For `Cc1c[nH]c(C(=O)N/N=C(/N=N/c2ccccc2)c2ccccc2O)c1C`, the IC50 (Pseudomonas aeruginosa) was 15.6 µM, the IC50 (Escherichia coli [8]) was 15.6 µM and the IC50 (Klebsiella pneumoniae [9]) was 15.6 µM. The IC50 [10] was 460 µM and the IC50 (Bacillus subtilis [11]) was 460 µM.

`O=C(O)Cn1c(C(=O)O)c(C(=O)c2cccs2)c2sc(C(=O)O)cc21` gave an Activity (Rattus norvegicus [12]) of 36%.

Compound `O=C(Nc1nnc(-c2ccccc2)s1)c1c[nH]cc1-c1ccc([N+](=O)[O-])cc1` has an Activity (Rattus norvegicus [13]) of 76.24% and an Activity (Rattus norvegicus [14]) of 78.62%.

`CN1C(=O)C(c2ccc[nH]2)=C(c2c[nH]c3ccc(Br)cc23)C1=O` showed an IC50 at 48 h [15] of 6.21 µM, an IC50 at 48 h [16] of 2.16 µM and an IC50 at 48 h [17] of 29.7 µM.

`CCOc1cc(C2OC(c3ccc(-n4cccc4)cc3)=NN2C(C)=O)ccc1O` (configuration not stated) showed an MIC [18] of 0.2 µg/mL.

Work on `O=C(N/N=C/c1ccc(C(c2cccc([N+](=O)[O-])c2)c2ccc(/C=N/NC(=O)c3ccncc3)[nH]2)[nH]1)c1ccncc1` yielded an MIC [19] of 7.9 µg/mL (≈ 14.1 µM).

Compound `CCCC/C=C/CCC(O)CCCCCCCC(=O)Nn1c(C)ccc1C` (configuration not stated) has a zone of inhibition at 800 µg/mL (Bacillus subtilis [20]) of 18 mm, a zone of inhibition at 800 µg/mL (Staphylococcus aureus) of 20 mm and a zone of inhibition at 800 µg/mL (Escherichia coli [21]) of 22 mm. It also gave a zone of inhibition at 800 µg/mL (Klebsiella pneumoniae [22]) of 21 mm.

With `CCCCCCC(O)C/C=C/CCCCCCCCC(=O)Nn1c(C)ccc1C` (configuration not stated) the zone of inhibition at 800 µg/mL (Bacillus subtilis [20]) was 19 mm, the zone of inhibition at 800 µg/mL (Staphylococcus aureus) was 18 mm and the zone of inhibition at 800 µg/mL (Escherichia coli [21]) was 21 mm. For the same compound, the zone of inhibition at 800 µg/mL (Klebsiella pneumoniae [22]) was 20 mm.

Work on `Cc1ccc(C)n1-c1ccc(C(=O)n2[nH]c(=O)c3ccccc3c2=O)cc1` yielded an MIC [18] of 0.4 µg/mL.

`CCCCc1c(COC(N)=O)cn(Cc2ccncc2)c1Sc1cc(Cl)cc(Cl)c1` gave an EC50 [23] of 0.007 µM.

Work on `CCCCCn1c(C)c(Br)c(C(=O)c2cccc3ccccc23)c1C` yielded an EC50 (Cannabinoid receptor 1) of 0.0133 µM and an EC50 (Cannabinoid receptor 2) of 0.0068 µM.

In the case of `CCOC(=O)c1cc(-c2ccc([N+](=O)[O-])cc2)n(-c2ccc(C3=NNC(=O)CC3)cc2)c1C`, the Activity (Rattus norvegicus [24]) is reported as 70.3 mmHg.

For `CCOc1c([N+](=O)[O-])c2n(c1C)CCN2Cc1cnc(Cl)s1`, the mortality [25] was 50%.

Compound `Cc1c(CN2CCSCC2)cc(-c2ccccc2F)n1-c1ccccc1F` has an MIC [26] of 1 µg/mL (≈ 2.6 µM).

Compound `NC(=O)c1c(-c2ccc(Oc3ccccc3)cc2)[nH]c(C(=O)c2c(F)cccc2F)c1N` has an IC50 [27] of 0.0011 µM.

In the case of `O=C(O)c1cn(C2CC2)c2cc(N3CCNCC3)c(F)cc2c1=O` [CIPROFLOXACIN], the zone of inhibition at 800 µg/mL (Bacillus subtilis [20]) is reported as 18 mm, the zone of inhibition at 800 µg/mL (Staphylococcus aureus) is reported as 20 mm and the zone of inhibition at 800 µg/mL (Klebsiella pneumoniae [22]) is reported as 23 mm.

For `COc1cc2c(c(OC)c1OC)-c1ccc(OC)c(=O)cc1[C@@H](NC(C)=O)CC2` [COLCHICINE], the IC50 (MDA-MB-231) was 2 µM.

Work on `O=C([O-])Cc1ccccc1Nc1c(Cl)cccc1Cl.[Na+]` [DICLOFENAC SODIUM] yielded an Activity (Rattus norvegicus [28]) of 68%.

Work on `CC[C@@H](CO)NCCN[C@@H](CC)CO` [ETHAMBUTOL] yielded an MIC [18] of 0.5 µg/mL.

`NNc1nncc2ccccc12` [HYDRALAZINE] gave an Activity (Rattus norvegicus [24]) of 83.59 mmHg.

Work on `O=[N+]([O-])NC1=NCCN1Cc1ccc(Cl)nc1` [IMIDACLOPRID] yielded a mortality [25] of 40%.

With `COc1ccc2c(c1)c(CC(=O)O)c(C)n2C(=O)c1ccc(Cl)cc1` [INDOMETHACIN] the Activity (Rattus norvegicus [13]) was 74.82% and the Activity (Rattus norvegicus [14]) was 80.32%.

Compound `NNC(=O)c1ccncc1` [ISONIAZID] has an MIC [19] of 7.9 µg/mL (≈ 57.6 µM), an MIC [18] of 0.2 µg/mL and an MIC [26] of 0.25 µg/mL (≈ 1.82 µM).

In the case of `CN1C(C(=O)Nc2ccccn2)=C(O)c2ccccc2S1(=O)=O` [PIROXICAM], the Activity (Rattus norvegicus [28]) is reported as 59%.

Compound `CO[C@H]1/C=C/O[C@@]2(C)Oc3c(C)c(O)c4c(O)c(c(/C=N/N5CCN(C)CC5)c(O)c4c3C2=O)NC(=O)/C(C)=C\C=C\[C@H](C)[C@H](O)[C@@H](C)[C@@H](O)[C@@H](C)[C@H](OC(C)=O)[C@@H]1C` [RIFAMPIN] has an MIC [18] of 0.4 µg/mL and an MIC [26] of 0.3 µg/mL (≈ 0.365 µM).

`O=C1NC(=O)C(c2c[nH]c3ccccc23)=C1c1c[nH]c2ccccc12` [RO-316233] showed an IC50 at 48 h [15] of 15.9 µM, an IC50 at 48 h [16] of 10.3 µM and an IC50 at 48 h [17] of 13.2 µM. For the same compound, the IC50 at 48 h [29] was 4.14 µM.

`CN[C@@H]1[C@H](O[C@H]2[C@H](O[C@H]3[C@H](O)[C@@H](O)[C@H](N=C(N)N)[C@@H](O)[C@@H]3N=C(N)N)O[C@@H](C)[C@]2(O)C=O)O[C@@H](CO)[C@H](O)[C@H]1O` [STREPTOMYCIN] showed an MIC [26] of 0.5 µg/mL (≈ 0.86 µM).

Compound `NC(=O)N1C(=O)/C(=C(\[O-])c2cccs2)c2cc(Cl)ccc21.[Na+]` [TENIDAP SODIUM] has an Activity (Rattus norvegicus [28]) of 60%.

In the case of `CN(C)[C@@H]1C(O)=C(C(N)=O)C(=O)[C@@]2(O)C(O)=C3C(=O)c4c(O)cccc4[C@@](C)(O)[C@H]3C[C@@H]12` [TETRACYCLINE], the IC50 (Pseudomonas aeruginosa) is reported as 1.25 µM, the IC50 (Escherichia coli [8]) is reported as 10 µM and the IC50 (Klebsiella pneumoniae [9]) is reported as 0.312 µM. The IC50 [10] was 10 µM and the IC50 (Bacillus subtilis [11]) was 1.25 µM.

Compound `CC(/C=C/C(=O)NO)=C\[C@@H](C)C(=O)c1ccc(N(C)C)cc1` [TRICHOSTATIN] has an IC50 [5] of 0.007 µM, an IC50 [6] of 0.0004 µM and an IC50 [7] of 0.0008 µM.
